# Measurements published in the C3SDB collision cross section collection.
# How the values were obtained:
# [1] = [M+H]+; instrument: TW; Major Mix IMS/Tof Calibration Kit (Waters)
# [2] = instrument: DT, stepped-field
smiles,measurement,setting,value
COc1cc(CCN)c(OC)cc1I [2C-I],collision cross section (N2),[1],157.7 Å²
COc1ccc2[nH]cc(CCN(C)C)c2c1 [5-MeO-DMT],collision cross section (N2),[1],150.3 Å²
"CCN(CC)CCc1c[nH]c2ccccc12 [""NN-Diethyltryptamine""]",collision cross section (N2),[1],148.6 Å²
"CN(C)CCc1c[nH]c2ccccc12 [""NN-Dimethyltryptamine""]",collision cross section (N2),[1],143.5 Å²
Cc1ccc(/C(=C\CN2CCCC2)c2cccc(/C=C/C(=O)O)n2)cc1 [Acrivastine],collision cross section (N2),[1],193.9 Å²
COc1cc2nc(N(C)CCCNC(=O)C3CCCO3)nc(N)c2cc1OC (stereo unspecified) [Alfuzosin],collision cross section (N2),[1],194.6 Å²
OCc1nnc2n1-c1ccc(Cl)cc1C(c1ccccc1)=NC2 [Alprazolam-M alpha-Hydroxy],collision cross section (N2),[1],173.3 Å²
C=CCc1ccccc1OCC(O)CNC(C)C (stereo unspecified) [Alprenolol],collision cross section (N2),[1],159.5 Å²
CCCCc1oc2ccccc2c1C(=O)c1cc(I)c(OCCN(CC)CC)c(I)c1 [Amiodarone],collision cross section (N2),[1],226.4 Å²
CN(C)CC/C=C1\c2ccccc2CC(O)c2ccccc21 (stereo unspecified) [Amitriptylin-M (E)-10-hydroxy],collision cross section (N2),[1],167.6 Å²
CN(C)CCC=C1c2ccccc2CCc2ccccc21 [Amitriptyline],collision cross section (N2),[1],167.2 Å²
CCOC(=O)C1=C(COCCN)NC(C)=C(C(=O)OC)C1c1ccccc1Cl (stereo unspecified) [Amlodipine],collision cross section (N2),[1],188 Å²
Clc1ccc2c(c1)C(N1CCNCC1)=Nc1ccccc1O2 [Amoxapine],collision cross section (N2),[1],170.2 Å²
NCC(CC(=O)O)c1ccc(Cl)cc1 (stereo unspecified) [Baclofen],collision cross section (N2),[1],149.2 Å²
C[C@@H](Cc1ccccc1)N(C)Cc1ccccc1 [Benzphetamine],collision cross section (N2),[1],154.8 Å²
CN1[C@@H]2CC[C@H]1C[C@@H](OC(c1ccccc1)c1ccccc1)C2 [Benztropine],collision cross section (N2),[1],180.8 Å²
CC(C)NCC(O)COc1ccc(COCCOC(C)C)cc1 (stereo unspecified) [Bisoprolol],collision cross section (N2),[1],192.2 Å²
CCC(NC)C(=O)c1ccc2c(c1)OCO2 (stereo unspecified) [Butylone],collision cross section (N2),[1],151 Å²
CCC(Br)(CC)C(=O)NC(N)=O [Carbromal],collision cross section (N2),[1],139.8 Å²
Clc1ccc(C(c2ccccc2)N2CCNCC2)cc1 (stereo unspecified) [Cetirizine-M N-desalkyl],collision cross section (N2),[1],168.4 Å²
CCN(CC)CCCC(C)Nc1ccnc2cc(Cl)ccc12 (stereo unspecified) [Chloroquine],collision cross section (N2),[1],176.8 Å²
CN(C)CC/C=C1/c2ccccc2Sc2ccc(Cl)cc21 [Chlorprothixene],collision cross section (N2),[1],170.1 Å²
C(=C\c1ccccc1)/CN1CCN(C(c2ccccc2)c2ccccc2)CC1 [Cinnarizine],collision cross section (N2),[1],206.2 Å²
CNCCC[C@@]1(c2ccc(F)cc2)OCc2cc(C#N)ccc21 [Citalopram-M N-desmethyl],collision cross section (N2),[1],178.7 Å²
Clc1cccc(Cl)c1NC1=NCCN1 [Clonidine],collision cross section (N2),[1],144 Å²
Clc1ccc2c(c1)N=C(N1CCNCC1)c1ccccc1N2 [Clozapine-M nor],collision cross section (N2),[1],173.8 Å²
Clc1ccc2c(c1)CCc1cccnc1C2=C1CCNCC1 [Desloratadine],collision cross section (N2),[1],175.5 Å²
CN(C)CC(c1ccc(O)cc1)C1(O)CCCCC1 (stereo unspecified) [Desvenlafaxine],collision cross section (N2),[1],166.7 Å²
Cc1cccc(Cc2cnc[nH]2)c1C [Detomidine],collision cross section (N2),[1],146.8 Å²
COc1ccc2c3c1O[C@H]1[C@@H](O)CC[C@H]4[C@@H](C2)N(C)CC[C@@]341 [Dihydrocodeine],collision cross section (N2),[1],168.6 Å²
COc1ccc([C@@H]2Sc3ccccc3N(CCN(C)C)C(=O)[C@@H]2OC(C)=O)cc1 [Diltiazem],collision cross section (N2),[1],197.8 Å²
CCCCCCCC/C=C\CCCCCCCC(=O)O[C@H](COC(=O)CCCCCCCCCCCCCCCCC)COP(=O)(O)OC[C@H](N)C(=O)O [PS(36:01)],collision cross section (N2),[2]; [M+2Na-H]+,287.95 Å²
same,collision cross section (N2),[2]; [M+H]+,283.39 Å²
same,collision cross section (N2),[2]; [M+K]+,287.48 Å²
same,collision cross section (N2),[2]; [M-H]-,282.92 Å²
CCCCC/C=C\C/C=C\C/C=C\C/C=C\CCCCCC(=O)OC[C@H](COP(=O)(O)OC[C@H](N)C(=O)O)OC(=O)CCCCCCCCCCCCC [PS(36:04)],collision cross section (N2),[2]; [M+2Na-H]+,281.53 Å²
CCCCCC/C=C\CCCCCCCC(=O)OC[C@H](COP(=O)(O)OC[C@H](N)C(=O)O)OC(=O)CCCCCCCCC/C=C\CCCCCCCCCC [PS(38:02)],collision cross section (N2),[2]; [M+2Na-H]+,292.46 Å²
same,collision cross section (N2),[2]; [M+H]+,287.73 Å²
same,collision cross section (N2),[2]; [M-H]-,287.56 Å²
CCCCC/C=C\C/C=C\CCCCCCCCCCCC(=O)O[C@H](COC(=O)CCCCCCCCCCCCCCCCC)COP(=O)(O)OC[C@H](N)C(=O)O [PS(40:02)],collision cross section (N2),[2]; [M+2Na-H]+,299.44 Å²
same,collision cross section (N2),[2]; [M+H]+,294.02 Å²
CCCCC/C=C\C/C=C\CCCCCCCCCCCC(=O)O[C@H](COC(=O)CCCCCCC/C=C\CCCCCCCC)COP(=O)(O)OC[C@H](N)C(=O)O [PS(40:03)],collision cross section (N2),[2]; [M+H]+,292.62 Å²
same,collision cross section (N2),[2]; [M+Na]+,296.28 Å²
CCCCC/C=C\C/C=C\C/C=C\C/C=C\CCCCCC(=O)O[C@H](COC(=O)CCCCCCC/C=C\C/C=C\CCCCC)COP(=O)(O)OC[C@H](N)C(=O)O [PS(40:06)],collision cross section (N2),[2]; [M+2Na-H]+,295.61 Å²
same,collision cross section (N2),[2]; [M+H]+,287.73 Å²
same,collision cross section (N2),[2]; [M+K]+,292.76 Å²
same,collision cross section (N2),[2]; [M+Na]+,291.7 Å²
same,collision cross section (N2),[2]; [M-H]-,289.09 Å²
CC/C=C\C/C=C\C/C=C\CCCCCCCC(=O)O[C@H](COC(=O)CCCCC/C=C\C/C=C\C/C=C\C/C=C\CCCCC)COP(=O)(O)OC[C@H](N)C(=O)O [PS(40:07)],collision cross section (N2),[2]; [M+2Na-H]+,290.15 Å²
same,collision cross section (N2),[2]; [M+Na]+,289.65 Å²
same,collision cross section (N2),[2]; [M-H]-,287.37 Å²
CC/C=C\C/C=C\C/C=C\C/C=C\C/C=C\CCCC(=O)O[C@H](COC(=O)CCCCCC/C=C\C/C=C\C/C=C\CCCCC)COP(=O)(O)OC[C@H](N)C(=O)O [PS(40:08)],collision cross section (N2),[2]; [M+2Na-H]+,287.97 Å²
CC/C=C\C/C=C\C/C=C\C/C=C\C/C=C\CCCC(=O)OC[C@H](COP(=O)(O)OC[C@H](N)C(=O)O)OC(=O)CCCCCCCCCCCCCCCCCCCC [PS(41:05)],collision cross section (N2),[2]; [M+2Na-H]+,298.43 Å²
CCCCCCCCCC/C=C\CCCCCCCCCC(=O)O[C@H](COC(=O)CCCCCCCCCCCCCCCCCCC)COP(=O)(O)OC[C@H](N)C(=O)O [PS(42:01)],collision cross section (N2),[2]; [M+H]+,301.86 Å²
same,collision cross section (N2),[2]; [M+Na]+,303.25 Å²
CC/C=C\C/C=C\C/C=C\C/C=C\C/C=C\C/C=C\CCC(=O)O[C@H](COC(=O)CCCCCCCCC/C=C\CCCCCCCC)COP(=O)(O)OC[C@H](N)C(=O)O [PS(42:07)],collision cross section (N2),[2]; [M+2Na-H]+,296.35 Å²
CCCCC/C=C\C/C=C\C/C=C\C/C=C\CCCCCC(=O)OC[C@H](COP(=O)(O)OC[C@H](N)C(=O)O)OC(=O)CCCCCCCCC/C=C\CCCCCCCCCC [PS(44:05)],collision cross section (N2),[2]; [M+2Na-H]+,306.87 Å²
CC/C=C\C/C=C\C/C=C\C/C=C\C/C=C\C/C=C\CCC(=O)O[C@H](COC(=O)CCCCCCCCC/C=C\CCCCCCCCCC)COP(=O)(O)OC[C@H](N)C(=O)O [PS(44:07)],collision cross section (N2),[2]; [M+2Na-H]+,303.11 Å²
CCCCCCCCCCCCC=CC[C@@H](O)[C@H](COP(=O)([O-])OCC[N+](C)(C)C)NC(=O)CCCCCCCCCCCCCCC [SM(34:01)],collision cross section (N2),[2]; [M+Cl]-,284.26 Å²
same,collision cross section (N2),[2]; [M+HCOO]-,284.66 Å²
same,collision cross section (N2),[2]; [M+H]+,280.06 Å²
same,collision cross section (N2),[2]; [M+Na]+,278.77 Å²
CCCCCCCCCCCCC=CC[C@@H](O)[C@H](COP(=O)([O-])OCC[N+](C)(C)C)NC(=O)CCCCCCCCCCCCCCCCC [SM(36:01)],collision cross section (N2),[2]; [M+Cl]-,288.69 Å²
same,collision cross section (N2),[2]; [M+HCOO]-,290.34 Å²
same,collision cross section (N2),[2]; [M+H]+,286.24 Å²
same,collision cross section (N2),[2]; [M+K]+,288.38 Å²
same,collision cross section (N2),[2]; [M+Na-H2O]+,280.09 Å²
same,collision cross section (N2),[2]; [M+Na]+,285.86 Å²
CCCCCCCCCCCCC=CC[C@@H](O)[C@H](COP(=O)([O-])OCC[N+](C)(C)C)NC(=O)CC=CCCCCCCCCCCCCCCCCCC [SM(40:02)],collision cross section (N2),[2]; [M+Cl]-,299.55 Å²
same,collision cross section (N2),[2]; [M+HCOO]-,299.75 Å²
same,collision cross section (N2),[2]; [M+H]+,295.66 Å²
same,collision cross section (N2),[2]; [M+Na]+,292.53 Å²
CCCCCCCCCCCCCCCCCCCCCCCC(=O)N[C@@H](COP(=O)([O-])OCC[N+](C)(C)C)[C@H](O)CCCCCCCCCCCCCCC [SM(42:00)],collision cross section (N2),[2]; [M+HCOO]-,308.73 Å²
same,collision cross section (N2),[2]; [M+H]+,305.33 Å²
CCCCCCCCCCCCC=CC[C@@H](O)[C@H](COP(=O)([O-])OCC[N+](C)(C)C)NC(=O)CC=CCCCCCCCCCCCCCCCCCCCCCC [SM(44:02)],collision cross section (N2),[2]; [M+H]+,307.52 Å²
same,collision cross section (N2),[2]; [M+Na]+,306.5 Å²
